Laboratory results as given in patent US20070082876A1, “Novel C18 modified retrosteroids as progesterone receptor modulator compounds” (Solvay Pharmaceuticals GmbH, priority 2005, published 2007).

Assays:
[1] = tested on: progesterone receptor (alkaline phosphatase expression in T47D human breast carcinoma cells); assay: Progesterone-dependent alkaline phosphatase expression assay (AP assay), agonistic and antagonistic mode; format: cell-based; conditions: for inhibition at 0.1 µM: 100 nM compound, inhibition of alkaline phosphatase induction by 1 nM Dydrogesterone, read-out: PI [100 nM] (% inhibition); for activation at 0.1 µM: 48 h, 100 nM compound alone, alkaline phosphatase induction, 100% = 1 nM Dydrogesterone, read-out: PS [100 nM] (% stimulation); for EC50: agonistic potency; for IC50: antagonistic potency against 1 nM Dydrogesterone
Method: The progesterone-dependent modulation of alkaline phosphatase expression was examined using T47D human breast carcinoma cells [Keydar et al., 1979]. The assay was performed as previously described by Di Lorenzo et al. (1991) with the modification of using Dydrogesterone as comparative progestin to determine the antagonistic and agonistic activity.
The cell line was purchased from CLS Cell Lines Service (Hildastrasse 21, D-69214 Eppelheim, Germany).
In brief, the cells were plated in 96-well plates at 40,000 cells/well using the following growth medium: RPMI 1640 with: 10% FBS, 1 mM Sodium Pyruvat MEM, 10 mM Hepes, 0.01 mg/ml Bovine insulin, and 25 μg/ml Gentamycin. After 24 h of cultivation, the growth medium was replaced with medium containing 2% fetal bovine serum and the test compounds were added to each well to achieve the appropriate compound concentration: For determination of agonistic activity only the test compounds were added; for measurement of antagonistic activity the test compounds and additionally Dydrogesterone as standard progesterone agonist was added to a final concentration of 1 nM. After 48 h of cultivation, the medium was removed and the cells were washed with 200 μl of Dulbecco's phosphate-buffered saline without calcium and magnesium (PBS(−)).
Then the cells were fixed with 3.7% formaldehyde in phosphate-buffered saline for 15 min at 22° C. After washing the cells with PBS, 100 μl of a […] (pNPP) solution (pNPP Liquid Substrate System; Sigma) was added to each well and incubated for 2 h at room temperature protected from light. The reaction was stopped with 100 μl 1N NaOH and the absorbance was measured with a spectrophotometer (Victor, Perkin Elmer) at 405 nm.
The results are expressed as alkaline phosphatase induction (as 100% with 1 nM Dydrogesterone) or inhibition (against alkaline phosphatase induction by 1 nM Dydrogesterone) at a certain concentration of test compound.
Calculations: % stimulation=(effect compound−basal)/(effect dydro 1 nM−basal)*100 % inhibition of 1 nM Dydro=100*{1−[(effect compound·basal)/(effect dydro 1 nM·basal)]}
For each compound the % inhibition (PI) and % stimulation (PS), respectively, at a compound concentration of 100 nM was determined. For selected compounds, the corresponding values were measured for several different concentrations, and subsequently were plotted against the concentration of the test compound, and used to calculate the IC50 value (for the antagonistic potency; the IC50 value is the concentration (nM), required to reduce the maximal response by 50%) and EC50 values (for the agonistic potency; the EC50 value is the effective concentration (nM) that produced 50% of the maximum response), respectively.

[2] = biological target: T1, bovine progesterone receptor (Bos taurus, UniProt F1N712); assay: Progesterone receptor binding assay (CEREP, 3H-R5020 ligand, uterus tissue); conditions: bovine PR; 3H-R5020 as ligand, uterus tissue as receptor source; read-out: Progesterone Receptor binding (pKi) (converted)
T1 construct: uterus tissue as the source of progesterone receptor; tissue CEREP Progesterone receptor-814; host or cells: bovine uterus tissue (the cited method, Hurd & Moudgil 1988, used calf uterus)
T1 sequence (F1N712 1-914): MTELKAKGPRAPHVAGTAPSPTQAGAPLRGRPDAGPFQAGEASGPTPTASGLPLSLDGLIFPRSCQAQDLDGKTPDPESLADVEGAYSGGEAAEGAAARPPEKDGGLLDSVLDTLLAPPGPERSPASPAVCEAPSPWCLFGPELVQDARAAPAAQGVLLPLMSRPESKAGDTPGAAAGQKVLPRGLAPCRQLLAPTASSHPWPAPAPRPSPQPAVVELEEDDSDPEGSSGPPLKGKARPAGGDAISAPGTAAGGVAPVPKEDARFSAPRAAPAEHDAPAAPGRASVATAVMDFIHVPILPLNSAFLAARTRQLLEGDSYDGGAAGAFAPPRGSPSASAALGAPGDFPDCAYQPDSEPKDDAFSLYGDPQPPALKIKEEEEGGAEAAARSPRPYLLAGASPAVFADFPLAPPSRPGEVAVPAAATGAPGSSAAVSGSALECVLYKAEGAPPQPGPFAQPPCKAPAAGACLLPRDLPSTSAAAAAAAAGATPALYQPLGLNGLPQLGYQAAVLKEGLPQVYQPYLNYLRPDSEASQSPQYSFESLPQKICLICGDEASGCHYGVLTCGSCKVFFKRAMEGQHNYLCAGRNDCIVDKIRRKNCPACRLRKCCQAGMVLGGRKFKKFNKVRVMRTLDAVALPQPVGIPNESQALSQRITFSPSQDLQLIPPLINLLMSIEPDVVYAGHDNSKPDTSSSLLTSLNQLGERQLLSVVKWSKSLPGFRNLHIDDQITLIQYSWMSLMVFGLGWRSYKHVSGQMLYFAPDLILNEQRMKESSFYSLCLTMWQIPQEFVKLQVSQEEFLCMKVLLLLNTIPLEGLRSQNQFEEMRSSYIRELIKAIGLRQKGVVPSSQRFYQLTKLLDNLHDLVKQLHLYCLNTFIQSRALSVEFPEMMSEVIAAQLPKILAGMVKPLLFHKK
Method: The progesterone receptor (PR) binding assays were performed at CEREP (Celle I'Evescault, France). The binding to the bovine progesterone receptor (Assay Cat No: Progesterone receptor-814) was measured using 3H-R5020 as ligand and uterus tissue as the source of progesterone receptor. The assay was performed as described by Hurd & Moudgil [1988]. […] The results of the receptor binding assay are presented as the individual pKi values for the bovine PR which were determined by measuring the binding activity for a concentration range of each compound.

cycling guinea pigs = assay: Guinea pig model (luteolysis and uterine PR expression in cycling guinea pigs); format: in vivo; conditions: 10mg/kg s.c. once daily on days 10-17 of the cycle; FIG. 1
Text: An assay how to assess the progesterone antagonists (PAs) and progesterone receptor modulators (PRMs) with respect to PR agonistic and antagonistic activities in vivo is described by Elger et al [2000] and within WO 04/014935 using cycling guinea pigs. In this assay, pure PR antagonists inhibit luteolysis at the end of the ovarian cycle, whereas PR agonist and SPRMs support luteolysis, i.e. this is a very sensitive in vivo method to reveal residual agonistic activity of SPRMs. Inhibition of luteolysis is reflected by elevated serum progesterone levels at day 10-17 and inhibition of uterine prostaglandin F2α, as well as by certain histological characteristics in uterus and ovary, such as increased expression of progesterone receptors and decreased glandular differentiation in the uterus, as well as persistence of large intact corpora lutea up to day 18.
Adult female guinea pigs (strain Dunkin Hartley, Crl:HA; body weight 500-700 g) are purchased from Charles River (Sulzfeld, Germany). Blood samples are drawn from the Vena saphena three times a week to monitor ovarian cycles by determination of progesterone levels. […]
Antiluteolytic activity is evaluated by assessment of serum progesterone profiles throughout the treatment period from day 10 to day 17 (FIG. 1).
Antiprogestational effects on the uterus are assessed by determination of the degree of PR expression. […]

| Compound | inhibition at 0.1 µM [1] [%] | activation at 0.1 µM [1] [%] | EC50 [1] [nM] | Ki [2] [nM] | IC50 [1] [nM] | antiluteolytic activity (serum progesterone levels day 10 to day 17) (cycling guinea pigs) |
| --- | --- | --- | --- | --- | --- | --- |
| CC(=O)[C@H]1CC[C@H]2[C@@H]3C=CC4=CC(=O)CC[C@@]4(C)[C@@H]3CC[C@]12CCCc1ccccc1 [compound 17] | 79 | 8 | 25.1 | – | – | – |
| COc1cc(CCC[C@]23CC[C@@H]4[C@@H](C=CC5=CC(=O)CC[C@]54C)[C@@H]2CC[C@@H]3C(C)=O)cc(OC)c1 [compound 29] | 69 | 15 | 15.8 | – | – | – |
| CC(=O)[C@H]1CC[C@H]2[C@@H]3C=CC4=CC(=O)CC[C@@]4(C)[C@@H]3CC[C@]12CCCc1ccc(/C=N/O)cc1 [No. 2] | 77 | 10 | – | 200 | 20 | – |
| CCNC(=O)O/N=C/c1ccc(CCC[C@]23CC[C@@H]4[C@@H](C=CC5=CC(=O)CC[C@]54C)[C@@H]2CC[C@@H]3C(C)=O)cc1 [No. 5] | 52 | 35 | – | 200 | 5.01 | – |
| CC(=O)[C@H]1CC[C@H]2[C@@H]3C=CC4=CC(=O)CC[C@@]4(C)[C@@H]3CC[C@]12CCCc1ccc(C(N)=O)cc1 [No. 13] | 79 | 7 | – | 200 | 50.1 | – |
| CC#C[C@]1(O)CC[C@H]2[C@@H]3CCC4=CC(=O)CCC4=C3[C@@H](c3ccc(N(C)C)cc3)C[C@@]21C [mifepristone] | – | – | – | – | – | do not decline |
| CCNC(=O)O/N=C/c1ccc(CCC[C@]23CC[C@@H]4[C@@H](C=CC5=CC(=O)CC[C@]54C)[C@@H]2CC[C@]3(OC(=O)OCC)C(C)=O)cc1 [No. 6] | 32 | 60 | 50.1 | 501 | – | – |
| CC(=O)[C@H]1CC[C@H]2[C@@H]3C=CC4=CC(=O)CC[C@@]4(C)[C@@H]3CC[C@]12C [dydrogesterone, (9β,10α)-Pregna-4,6-diene-3,20-dione] | – | – | – | – | – | progesterone levels decrease |
| CCNC(=O)O/N=C/c1ccc(CCC[C@]23CC[C@@H]4[C@@H](CCC5=CC(=O)CC[C@]54C)[C@@H]2CC[C@@H]3C(C)=O)cc1 [No. 4] | 51 | 4 | – | 501 | 50.1 | – |
| COc1cccc(CCC[C@]23CC[C@@H]4[C@@H](C=CC5=CC(=O)CC[C@]54C)[C@@H]2CC[C@@H]3C(C)=O)c1 [compound 25] | 73 | 12 | 15.8 | – | – | – |
| CC(=O)[C@H]1CC[C@H]2[C@@H]3CCC4=CC(=O)CC[C@@]4(C)[C@@H]3CC[C@]12CCCc1ccc(/C=N/O)cc1 [No. 1] | 60 | 1 | – | 1000 | 31.6 | – |
